From PubChem BioAssay AID434987 (Southern Research Specialized Biocontainment Screening …, 2010)
pIC50: −log10 of the molar value. Active and inactive are the calls of the source. How the calls were made is not given here.

Test system: M. tuberculosis H37Rv growth inhibition with meropenem
Assay: dose response, H37Rv, with and without meropenem (AID 434987);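 further: growth over 7 days at 37 °C before Alamar Blue read on day 9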
[1] = M. tuberculosis H37Rv growth inhibition, measured here: IC50 without meropenem
[2] = M. tuberculosis H37Rv growth inhibition, measured here: IC90 without meropenem
[3] = measured here: IC90 with meropenem

SMILES | IC50 | pIC50 [1] | IC90 [2] | IC90 [3] | pIC50
Cc1ccc(OC(=O)COc2ccccc2)c(-n2nc3ccccc3n2)c1 | > 100 µM (inactive) | < 4.00 | > 100 µM | > 100 µM | –
CC(=O)Nc1nonc1-c1nc2ccccc2n1CCC(C)C | > 100 µM (inactive) | < 4.00 | > 100 µM | > 100 µM | –
COc1ccc(-c2cc(C(N)=O)nc(N3CCCCCC3)n2)cc1 | – | < 4.00 | > 100 µM | > 100 µM | 5.40
O=S(=O)(Nc1cccc(-c2ccc(N3CCCCCC3)nn2)c1)c1ccccc1Cl | – | < 4.00 | > 100 µM | > 25 µM | 4.80
CCN(CC(=O)Nc1ccccc1OC)C(=O)c1cc(S(=O)(=O)N2CCCCCC2)ccc1OC | > 100 µM (inactive) | < 4.00 | > 100 µM | > 100 µM | –
O=C(N/N=C/c1ccc(OC(=O)c2ccc3c(c2)OCO3)cc1)c1cncc(Br)c1 | – | 4.34 | > 100 µM | 48.3 µM | 5.26
COc1ccc(NC(=O)C(Cc2ccccc2)n2cccc2)c(OC)c1 (configuration not stated) | – | 4.32 | > 100 µM | > 100 µM | 4.87
O=C(CCN1C(=O)c2ccccc2S1(=O)=O)Nc1ccc(Cl)cc1 | > 100 µM (inactive) | < 4.00 | > 100 µM | > 100 µM | –
Cc1ccc(C)c(CSc2nnc(C)c(=O)n2N)c1 | – | 4.85 | 39.5 µM | 20.4 µM | 5.24
COc1cc(/C=N/NC(=S)Nc2cccc(S(=O)(=O)N(C)C)c2)cc(OC)c1O | > 100 µM (inactive) | < 4.00 | > 100 µM | > 100 µM | –
CCN(CC)c1ccc(N=Cc2c(O)n(-c3ccc(Cl)cc3)c(=O)[nH]c2=O)cc1 | – | < 4.00 | > 100 µM | > 100 µM | 4.68
C#C[C@]1(O)CC[C@H]2[C@@H]3CCC4=C(CCC(=O)C4)[C@H]3CC[C@@]21C | > 100 µM (inactive) | < 4.00 | > 100 µM | > 100 µM | –
c1ccc(-c2n[nH]c3c2CCC3)cc1 | – | 4.84 | 32.4 µM | 46.3 µM | 5.43
COc1ccc([N+](=O)[O-])cc1NS(=O)(=O)c1ccc(C(=O)N2CCCC2)cc1 | > 100 µM (inactive) | < 4.00 | > 100 µM | > 100 µM | –
CN1c2ccccc2C(=O)NC1c1ccc([N+](=O)[O-])s1 (configuration not stated) | – | 4.68 | 38.4 µM | 33.3 µM | 5.51
CN1CCN(c2ccc(NC(=O)c3ccc(-c4cccc([N+](=O)[O-])c4)o3)cc2)CC1 | 5.87 µM (inactive) | 5.16 | 18.1 µM | 6.71 µM | –
Cc1ccc(NC(=O)O/N=C/c2c(C)nn(C(C)(C)C)c2C)cc1Cl | > 100 µM (inactive) | < 4.00 | > 100 µM | > 100 µM | –
COCCCn1c(=O)/c(=C\c2ccccc2OC(C)C)s/c1=C(/C#N)C(=O)Nc1ccc(C(=O)O)cc1 | – | 4.87 | > 100 µM | 18.5 µM | 5.28
Cc1cc(C)nc(SCC(=O)Nc2ccccc2[N+](=O)[O-])n1 | 14.4 µM (inactive) | 4.56 | > 100 µM | > 100 µM | –
O=C(O)c1cc(-c2ccco2)nc2ccc(Br)cc12 | > 100 µM (inactive) | < 4.00 | > 100 µM | > 100 µM | –

SMILES | IC50 | pIC50 [1] | IC90 [2] | IC90 [3] | pIC50
Cc1ccc(-c2cc(C(=O)N/N=C/C=C/c3ccccc3)n[nH]2)o1 | > 100 µM (inactive) | < 4.00 | > 100 µM | > 100 µM | –
COc1ccc(-c2csc(NC(C)c3nc4cc(Cl)c(Cl)cc4n3CCCO)n2)cc1 (configuration not stated) | 97.3 µM (inactive) | < 4.00 | > 100 µM | > 100 µM | –
CCN(CC)S(=O)(=O)c1ccc(N/N=C(\C)c2ccc(OC)cc2O)nc1 | – | 5.24 | 11.3 µM | 10.4 µM | 5.97
CCc1cc2c(=O)nc3n(c2s1)Cc1ccccc1/C3=C(/O)c1ccc(F)cc1 | > 100 µM (inactive) | < 4.00 | > 100 µM | > 100 µM | –
Cc1ccc(-n2c(SCC(=O)NCc3ccco3)nc3sc4c(c3c2=O)CC(C)(C)SC4)cc1 | > 100 µM (inactive) | < 4.00 | > 100 µM | > 100 µM | –
CCCN1C(=O)c2ccc(C(=O)Nc3cc(C)on3)cc2C1=O | > 100 µM (inactive) | < 4.00 | > 100 µM | > 100 µM | –
COc1c(NC(C)=O)c2ccccc2c2ccccc12 | > 100 µM (inactive) | < 4.00 | > 100 µM | > 100 µM | –
Cn1nc(-c2ccc(OCC(=O)NCC3CCCO3)cc2)c2ccccc2c1=O (configuration not stated) | > 100 µM (inactive) | < 4.00 | > 100 µM | > 100 µM | –
O=C(Nc1nnc(-c2ccc3c(c2)OCCO3)o1)C1CCCCC1 | – | 4.26 | > 100 µM | > 100 µM | 4.79
CCc1ccc(NC(=S)Nc2ccc3cn[nH]c3c2)cc1 | – | < 4.00 | > 100 µM | > 100 µM | 4.62
O=C(CCC(=O)Nc1ccccc1)NNC(=O)c1ccco1 | > 100 µM (inactive) | < 4.00 | > 100 µM | > 100 µM | –
Cc1cc(NC(=O)CSc2ncnc3c2cnn3-c2ccccc2)no1 | > 100 µM (inactive) | < 4.00 | > 100 µM | > 100 µM | –
NC(=S)N/N=C/c1ccc2ccccc2c1 | – | < 4.00 | > 100 µM | > 100 µM | 5.69
Cc1ccc(C(=O)N/C(=C\c2ccc(-c3ccc(Cl)cc3)o2)C(=O)NCCCN(C)C)cc1 | 22.4 µM (inactive) | 4.60 | 28.3 µM | 23.7 µM | –
COc1cc(C(=O)NC2CCCCC2)ccc1OCc1ccc(Cl)cc1Cl | > 100 µM (inactive) | < 4.00 | > 100 µM | > 100 µM | –
Cc1cc(C)n(-c2nc(-c3ccc(Cl)c(Cl)c3)cs2)n1 | – | < 4.00 | > 100 µM | > 100 µM | 4.84
NNC(=O)c1cccc(O)c1 | – | 4.10 | > 100 µM | 73.9 µM | 5.00
O=c1cc(C(F)(F)F)c2sc(N3CCCCC3)nc2[nH]1 | 45.4 µM (inactive) | < 4.00 | > 100 µM | 49.3 µM | –
Cc1ccc(C(C)C)c(OCc2ccc(C(=O)N/N=C/c3ccc(C(=O)O)cc3)cc2)c1 | – | 4.36 | 84.9 µM | 49.5 µM | 4.87
CCSc1nnc(NC(=O)C2Cc3ccccc3CN2C(=O)c2ccco2)s1 (configuration not stated) | – | < 4.00 | > 100 µM | > 100 µM | 5.57

SMILES | IC50 | pIC50 [1] | IC90 [2] | IC90 [3] | pIC50
COc1ccc([C@H]2CC(=O)C=C(/C=C/c3ccccc3)C2)cc1OC | > 100 µM (inactive) | < 4.00 | > 100 µM | > 100 µM | –
CS(=O)(=O)N(Cc1ccc(Cl)cc1)c1ccc(C(=O)NCCC2=CCCCC2)cc1 | > 100 µM (inactive) | < 4.00 | > 100 µM | > 100 µM | –
CCOC(=O)c1c(C)[nH]c(C(=O)COC(=O)CCC2CCCC2)c1C | > 100 µM (inactive) | < 4.00 | > 100 µM | > 100 µM | –
CCCCNC(=O)c1onc(CSc2ccccc2CC)c1C(=O)O | 22.3 µM (inactive) | 4.35 | > 100 µM | 23.7 µM | –
Cc1[nH]c2c(C)cccc2c1CCNC(=O)c1ccc2c(c1[N+](=O)[O-])C(=O)c1ccccc1C2=O | > 100 µM (inactive) | < 4.00 | > 100 µM | > 100 µM | –
CCn1nnnc1SCC(=O)c1ccc(C)cc1C | > 100 µM (inactive) | < 4.00 | > 100 µM | > 100 µM | –
Cc1cc(C)c(C)c(S(=O)(=O)N2C(=S)NC(=O)C2CC(C)C)c1C (configuration not stated) | > 100 µM (inactive) | < 4.00 | > 100 µM | > 100 µM | –
COc1ccc(-c2csc(Nc3ccc(C)cn3)n2)cc1OC | 44.3 µM (inactive) | < 4.00 | > 100 µM | > 100 µM | –
Cc1ccc(C)c(S(=O)(=O)N2CCN(CC(=O)NC(C)c3ccccc3)CC2)c1 (configuration not stated) | 98 µM (inactive) | 4.00 | > 100 µM | > 100 µM | –
Cc1ccccc1NC(=O)c1ccc(CN(c2ccccc2)S(=O)(=O)c2ccccc2)cc1 | > 100 µM (inactive) | < 4.00 | > 100 µM | > 100 µM | –
CN(C)S(=O)(=O)c1ccc(C(=O)OCC2CC2(Cl)Cl)cc1 (configuration not stated) | > 100 µM (inactive) | < 4.00 | > 100 µM | > 100 µM | –
COC(=O)c1ccc(/C=N\NC(=O)c2ccc(C)cc2Cl)cc1 | > 100 µM (inactive) | < 4.00 | > 100 µM | > 100 µM | –
COC(=O)c1c(NC(=O)C2c3ccccc3Oc3ccccc32)sc(C)c1C | > 100 µM (inactive) | < 4.00 | > 100 µM | > 100 µM | –
Cc1ccc(CN2CCSc3ccc(C(=O)NC4CCN(Cc5ccccc5)CC4)cc32)cc1 | > 100 µM (inactive) | < 4.00 | > 100 µM | > 100 µM | –
CC(=O)c1c(OC(=O)c2cccc(Cl)c2)c2ccccc2n1C | 29.5 µM (inactive) | 4.16 | > 100 µM | > 100 µM | –
CCCCNC(=O)c1onc(CSc2ccc(F)c(F)c2)c1C(=O)O | 27.8 µM (inactive) | 4.26 | > 100 µM | 56.8 µM | –
N#CC1=C2C=Cc3ccccc3N2CCCC1=O | – | 4.03 | > 100 µM | > 100 µM | 4.67
O=C(O)Cc1csc(Nc2cccc(Cl)c2)n1 | > 100 µM (inactive) | < 4.00 | > 100 µM | > 100 µM | –
